Key:
[1] = molecular target: T1, G protein-activated inward rectifier potassium channel 2 (Mus musculus) (UniProt P48542); assay: Stabilization of GIRK2 channel in C57BL6 mouse brain DAergic neurons assessed as recovery of GABAB receptor stimulation-mediated firing inhibition treated with 100 uM dopamine and 10 uM sulpiride D2 antagonist under continuous perfusion followed by 300 nM baclofen treated at 300 uM measured after 15 mins by multi-electrode array (reference value: 24.94 +-/ 14.46%); assay type: tissue-based; design: scale not given: the % may be the effect or the level left
T1 sequence (whole entry): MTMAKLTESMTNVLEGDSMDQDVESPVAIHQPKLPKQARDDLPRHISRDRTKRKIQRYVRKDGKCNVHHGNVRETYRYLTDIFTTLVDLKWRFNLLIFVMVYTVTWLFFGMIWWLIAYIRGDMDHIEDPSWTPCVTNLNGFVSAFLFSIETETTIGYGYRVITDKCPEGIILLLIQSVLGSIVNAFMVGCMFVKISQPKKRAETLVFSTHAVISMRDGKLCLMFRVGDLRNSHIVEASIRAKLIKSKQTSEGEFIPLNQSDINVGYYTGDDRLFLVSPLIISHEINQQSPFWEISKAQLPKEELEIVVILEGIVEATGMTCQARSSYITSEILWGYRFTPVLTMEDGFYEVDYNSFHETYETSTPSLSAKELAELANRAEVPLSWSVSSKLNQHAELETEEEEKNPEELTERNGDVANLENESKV

[2] = molecular target: T1, G protein-activated inward rectifier potassium channel 2 (Mus musculus); assay: Stabilization of GIRK2 channel in C57BL6 mouse brain DAergic neurons assessed as recovery of D2 receptor stimulation-mediated firing inhibition in presence of 100 nM quinpirole under continuous perfusion followed by treated at 300 uM measured after 15 mins by multi-electrode array (reference value: 4.07 +-/ 3.6%); assay type: tissue-based; design: scale not given: the % may be the effect or the level left

Q: With `N[C@@H](CC1=CC(=O)C(=O)C=C1)C(=O)O` as the compound, how does the Activity [1] read?
A: The Activity was 73.6%.

Q: And the Activity [2]?
A: The Activity was 81.8%.

Source: ChEMBL document CHEMBL4665644, “L-DOPA-quinone Mediated Recovery from GIRK Channel Firing Inhibition in Dopaminergic Neurons” (ACS Med Chem Lett, 2019)
